Assay results published in article PMC4770715, “LIM kinase inhibitors disrupt mitotic microtubule organization and impair tumor cell proliferation” (Oncotarget, 2015).

What was measured:
Experiment in all cases: biochemical
Design in all cases: KINOMEscan active-site competition binding, percent of control (100 = no competition)
Settings in all cases: competition binding, percent control
[1] = target: T1, ABL1(F317L)-phosphorylated (Homo sapiens, UniProt P00519, F317L)
T1 construct: phosphorylated
From the text: (§1) Given the potential for the use of LIMK inhibitors as cancer chemotherapeutics, a high-throughput drug discovery and medicinal chemistry program was undertaken. Details of the screening methodology and description of initial hit matter were described in [38]. […] Details of their chemical synthesis are described in Charles et al.. […] These and additional physiochemical parameters are in Supplemental Table 5. […] Kinases inhibited >25% to 50% have yellow circles, 51% to 75% have orange circles, and >76% have red circles. In each case, the size of the circle is proportional to percentage inhibition. LIMK1 and LIMK2 positions are indicated in blue. Illustration reproduced courtesy of Cell Signaling Technology, Inc. (www.cellsignal.com). B. CRT0105950 structure and kinome selectivity mapping as described above. C.

[2] = target: T2, AMPK-alpha2 (Homo sapiens, UniProt P54646)
T2 construct: gene PRKAA2
From the text: as §1

[3] = target: CAMK1 (Homo sapiens, UniProt Q14012)
From the text: as §1

[4] = target: CAMK2B (Homo sapiens, UniProt Q13554)
From the text: as §1

[5] = target: T3, DLK (Homo sapiens, UniProt Q12852)
T3 construct: gene MAP3K12
From the text: as §1

[6] = target: DYRK1B (Homo sapiens, UniProt Q9Y463)
From the text: as §1

[7] = target: DYRK2 (Homo sapiens, UniProt Q92630)
From the text: as §1

[8] = target: EPHB2 (Homo sapiens, UniProt P29323)
From the text: as §1

[9] = target: GRK1 (Homo sapiens, UniProt Q15835)
From the text: as §1

[10] = target: IGF1R (Homo sapiens, UniProt P08069)
From the text: as §1

[11] = target: LCK (Homo sapiens, UniProt P06239)
From the text: as §1

[12] = target: T4, MEK2 (Homo sapiens, UniProt P36507)
T4 construct: gene MAP2K2
From the text: as §1

[13] = target: MET(Y1235D) (Homo sapiens, UniProt P08581, Y1235D)
From the text: as §1

[14] = target: T5, MLCK (Homo sapiens, UniProt Q32MK0)
T5 construct: gene MYLK3
From the text: as §1

[15] = target: T6, MLK3 (Homo sapiens, UniProt Q16584)
T6 construct: gene MAP3K11
From the text: as §1

[16] = target: T7, MST2 (Homo sapiens, UniProt Q13188)
T7 construct: gene STK3
From the text: as §1

[17] = target: T8, MST3 (Homo sapiens, UniProt Q9Y6E0)
T8 construct: gene STK24
From the text: as §1

[18] = target: NEK1 (Homo sapiens, UniProt Q96PY6)
From the text: as §1

[19] = target: PIK3CB (Homo sapiens, UniProt P42338)
From the text: as §1

[20] = target: PIK3CG (Homo sapiens, UniProt P48736)
From the text: as §1

[21] = target: T9, RSK3(Kin.Dom.1-N-terminal) (Homo sapiens, UniProt Q15349)
T9 construct: gene RPS6KA2; Kin.Dom.1-N-terminal
From the text: as §1

[22] = target: T10, TIE2 (Homo sapiens, UniProt Q02763)
T10 construct: gene TEK
From the text: as §1

[23] = target: T11, YSK4 (Homo sapiens, UniProt Q56UN5)
T11 construct: gene MAP3K19
From the text: as §1

T5 sequence (Q32MK0 whole entry): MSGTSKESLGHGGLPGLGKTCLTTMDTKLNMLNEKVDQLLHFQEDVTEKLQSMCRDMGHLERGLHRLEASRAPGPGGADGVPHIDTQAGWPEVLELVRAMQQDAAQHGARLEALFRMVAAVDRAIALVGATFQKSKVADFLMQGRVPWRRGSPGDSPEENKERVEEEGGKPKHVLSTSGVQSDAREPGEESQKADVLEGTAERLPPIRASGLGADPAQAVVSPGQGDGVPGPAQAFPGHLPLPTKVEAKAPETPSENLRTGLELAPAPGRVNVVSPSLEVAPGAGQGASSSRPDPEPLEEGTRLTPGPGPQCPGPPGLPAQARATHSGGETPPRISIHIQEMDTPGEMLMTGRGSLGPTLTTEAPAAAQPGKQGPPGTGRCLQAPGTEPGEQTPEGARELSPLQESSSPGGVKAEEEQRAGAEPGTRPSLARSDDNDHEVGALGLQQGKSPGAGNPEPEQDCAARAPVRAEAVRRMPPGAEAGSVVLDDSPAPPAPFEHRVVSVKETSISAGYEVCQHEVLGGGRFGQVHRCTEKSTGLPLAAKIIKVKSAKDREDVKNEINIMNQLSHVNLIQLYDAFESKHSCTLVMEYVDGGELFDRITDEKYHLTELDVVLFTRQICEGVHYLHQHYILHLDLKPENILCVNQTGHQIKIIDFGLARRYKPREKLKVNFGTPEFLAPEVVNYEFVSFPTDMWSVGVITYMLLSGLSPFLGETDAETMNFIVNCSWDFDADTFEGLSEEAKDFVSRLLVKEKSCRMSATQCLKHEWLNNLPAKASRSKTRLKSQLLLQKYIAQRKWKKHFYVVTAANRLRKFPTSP
Sequence of EPHB2 (P29323 whole entry): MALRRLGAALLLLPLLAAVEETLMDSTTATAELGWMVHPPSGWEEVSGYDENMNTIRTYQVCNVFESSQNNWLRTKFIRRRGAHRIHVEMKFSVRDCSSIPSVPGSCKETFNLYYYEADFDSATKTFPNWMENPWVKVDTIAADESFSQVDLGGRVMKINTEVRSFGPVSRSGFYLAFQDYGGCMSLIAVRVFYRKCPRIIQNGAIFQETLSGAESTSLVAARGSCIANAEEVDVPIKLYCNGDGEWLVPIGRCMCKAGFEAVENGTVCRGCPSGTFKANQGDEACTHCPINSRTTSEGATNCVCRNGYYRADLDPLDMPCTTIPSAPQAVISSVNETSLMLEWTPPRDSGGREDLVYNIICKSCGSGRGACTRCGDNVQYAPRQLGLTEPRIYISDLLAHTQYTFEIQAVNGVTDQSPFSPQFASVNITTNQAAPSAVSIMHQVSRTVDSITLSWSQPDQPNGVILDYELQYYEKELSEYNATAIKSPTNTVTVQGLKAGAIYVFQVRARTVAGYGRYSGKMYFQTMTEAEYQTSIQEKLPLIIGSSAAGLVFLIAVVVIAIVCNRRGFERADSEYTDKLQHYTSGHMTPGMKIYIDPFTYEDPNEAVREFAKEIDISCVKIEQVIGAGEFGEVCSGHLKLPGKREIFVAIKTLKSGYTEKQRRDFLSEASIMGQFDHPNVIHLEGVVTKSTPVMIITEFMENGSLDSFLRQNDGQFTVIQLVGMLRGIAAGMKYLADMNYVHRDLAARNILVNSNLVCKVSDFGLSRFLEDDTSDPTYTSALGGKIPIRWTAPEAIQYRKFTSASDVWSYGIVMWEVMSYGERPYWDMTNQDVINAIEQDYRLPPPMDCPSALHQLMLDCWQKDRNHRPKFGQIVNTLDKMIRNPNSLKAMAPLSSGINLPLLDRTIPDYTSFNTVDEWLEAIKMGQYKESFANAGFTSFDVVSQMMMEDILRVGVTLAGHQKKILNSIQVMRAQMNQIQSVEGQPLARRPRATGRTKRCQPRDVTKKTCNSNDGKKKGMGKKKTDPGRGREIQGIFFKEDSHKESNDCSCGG
T2 sequence (P54646 whole entry): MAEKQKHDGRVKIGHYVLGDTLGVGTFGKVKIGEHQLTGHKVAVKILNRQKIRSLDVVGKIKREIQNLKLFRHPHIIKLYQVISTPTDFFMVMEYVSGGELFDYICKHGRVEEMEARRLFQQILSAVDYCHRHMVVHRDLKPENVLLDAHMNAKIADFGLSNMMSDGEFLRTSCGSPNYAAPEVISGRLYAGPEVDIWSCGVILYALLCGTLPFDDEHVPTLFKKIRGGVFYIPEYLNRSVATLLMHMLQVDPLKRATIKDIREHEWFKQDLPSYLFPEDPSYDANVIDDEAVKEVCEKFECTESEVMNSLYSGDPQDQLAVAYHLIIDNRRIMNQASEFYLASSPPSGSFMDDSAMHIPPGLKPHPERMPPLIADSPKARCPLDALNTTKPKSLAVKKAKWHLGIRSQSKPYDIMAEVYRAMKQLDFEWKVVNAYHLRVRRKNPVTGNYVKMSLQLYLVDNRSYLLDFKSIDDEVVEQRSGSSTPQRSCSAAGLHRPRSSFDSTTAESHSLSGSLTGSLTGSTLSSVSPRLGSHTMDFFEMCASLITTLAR
T3 sequence (Q12852 whole entry): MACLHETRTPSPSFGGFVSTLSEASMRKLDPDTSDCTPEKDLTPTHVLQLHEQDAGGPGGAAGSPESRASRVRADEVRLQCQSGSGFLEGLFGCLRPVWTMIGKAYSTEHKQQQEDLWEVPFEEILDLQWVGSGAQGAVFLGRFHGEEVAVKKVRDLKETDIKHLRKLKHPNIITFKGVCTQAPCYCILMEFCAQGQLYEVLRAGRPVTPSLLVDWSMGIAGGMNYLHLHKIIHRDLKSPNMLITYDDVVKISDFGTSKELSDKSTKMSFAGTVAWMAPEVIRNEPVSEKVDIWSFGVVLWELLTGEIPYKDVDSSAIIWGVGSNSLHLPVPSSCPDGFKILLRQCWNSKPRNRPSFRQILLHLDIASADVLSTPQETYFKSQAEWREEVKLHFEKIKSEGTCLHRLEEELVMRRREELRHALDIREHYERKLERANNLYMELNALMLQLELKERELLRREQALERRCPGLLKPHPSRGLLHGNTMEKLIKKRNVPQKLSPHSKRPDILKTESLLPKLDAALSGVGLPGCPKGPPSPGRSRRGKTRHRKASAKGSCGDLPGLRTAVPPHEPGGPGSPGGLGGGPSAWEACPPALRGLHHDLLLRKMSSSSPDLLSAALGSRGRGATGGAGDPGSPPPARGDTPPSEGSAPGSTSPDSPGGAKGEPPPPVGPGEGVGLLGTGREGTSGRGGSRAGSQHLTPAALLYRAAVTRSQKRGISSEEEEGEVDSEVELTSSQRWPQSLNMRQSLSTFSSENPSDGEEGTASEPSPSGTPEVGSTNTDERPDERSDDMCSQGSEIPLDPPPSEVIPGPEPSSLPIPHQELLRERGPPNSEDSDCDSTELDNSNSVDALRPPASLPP
T7 sequence (Q13188 whole entry): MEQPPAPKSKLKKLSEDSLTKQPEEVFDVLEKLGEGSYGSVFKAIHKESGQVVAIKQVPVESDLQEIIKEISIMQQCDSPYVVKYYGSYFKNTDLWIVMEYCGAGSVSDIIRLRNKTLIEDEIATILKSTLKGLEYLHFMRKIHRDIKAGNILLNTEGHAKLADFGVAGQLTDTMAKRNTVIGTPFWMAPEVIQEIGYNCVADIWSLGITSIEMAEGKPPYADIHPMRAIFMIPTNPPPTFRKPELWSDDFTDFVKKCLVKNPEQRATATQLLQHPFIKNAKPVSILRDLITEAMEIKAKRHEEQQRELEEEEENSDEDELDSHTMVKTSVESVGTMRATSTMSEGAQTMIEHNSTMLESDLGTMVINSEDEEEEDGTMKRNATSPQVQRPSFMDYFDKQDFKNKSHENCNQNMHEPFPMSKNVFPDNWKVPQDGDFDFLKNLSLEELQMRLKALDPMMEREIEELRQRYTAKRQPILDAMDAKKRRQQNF
T1 sequence (P00519 whole entry F317L): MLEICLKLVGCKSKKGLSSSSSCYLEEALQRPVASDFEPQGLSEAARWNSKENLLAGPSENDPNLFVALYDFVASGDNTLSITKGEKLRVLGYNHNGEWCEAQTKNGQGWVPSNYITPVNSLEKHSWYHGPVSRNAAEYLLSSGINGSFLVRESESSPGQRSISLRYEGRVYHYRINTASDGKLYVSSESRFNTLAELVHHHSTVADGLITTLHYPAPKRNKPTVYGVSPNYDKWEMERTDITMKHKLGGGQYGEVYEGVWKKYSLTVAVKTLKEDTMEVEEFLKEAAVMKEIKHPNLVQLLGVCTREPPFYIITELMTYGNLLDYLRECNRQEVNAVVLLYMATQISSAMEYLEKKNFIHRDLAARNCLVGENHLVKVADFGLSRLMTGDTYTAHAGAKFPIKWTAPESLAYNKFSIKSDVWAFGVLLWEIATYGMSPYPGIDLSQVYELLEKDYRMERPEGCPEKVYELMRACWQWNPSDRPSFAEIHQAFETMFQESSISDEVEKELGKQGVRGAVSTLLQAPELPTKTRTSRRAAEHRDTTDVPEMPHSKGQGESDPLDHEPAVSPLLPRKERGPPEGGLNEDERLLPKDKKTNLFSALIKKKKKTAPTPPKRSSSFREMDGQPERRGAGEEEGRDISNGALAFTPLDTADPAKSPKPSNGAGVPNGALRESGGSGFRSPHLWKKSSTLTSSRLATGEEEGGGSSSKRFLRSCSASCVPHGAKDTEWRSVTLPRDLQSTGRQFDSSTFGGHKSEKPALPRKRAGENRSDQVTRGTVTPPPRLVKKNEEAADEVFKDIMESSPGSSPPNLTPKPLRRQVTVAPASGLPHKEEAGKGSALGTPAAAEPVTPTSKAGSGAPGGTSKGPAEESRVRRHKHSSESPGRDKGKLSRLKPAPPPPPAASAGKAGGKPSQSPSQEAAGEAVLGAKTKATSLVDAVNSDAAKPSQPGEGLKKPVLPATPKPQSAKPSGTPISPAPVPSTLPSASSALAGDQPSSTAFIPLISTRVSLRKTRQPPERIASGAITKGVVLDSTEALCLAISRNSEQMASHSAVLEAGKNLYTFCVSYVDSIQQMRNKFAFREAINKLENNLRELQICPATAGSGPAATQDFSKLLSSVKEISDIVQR

| SMILES | remaining binding at 10 µM [1] [%] | remaining binding at 10 µM [2] [%] | remaining binding at 10 µM [3] [%] | remaining binding at 10 µM [4] [%] | remaining binding at 10 µM [5] [%] | remaining binding at 10 µM [6] [%] | remaining binding at 10 µM [7] [%] | remaining binding at 10 µM [8] [%] | remaining binding at 10 µM [9] [%] | remaining binding at 10 µM [10] [%] | remaining binding at 10 µM [11] [%] | remaining binding at 10 µM [12] [%] | remaining binding at 10 µM [13] [%] | remaining binding at 10 µM [14] [%] | remaining binding at 10 µM [15] [%] | remaining binding at 10 µM [16] [%] | remaining binding at 10 µM [17] [%] | remaining binding at 10 µM [18] [%] | remaining binding at 10 µM [19] [%] | remaining binding at 10 µM [20] [%] | further results |
| --- | --- | --- | --- | --- | --- | --- | --- | --- | --- | --- | --- | --- | --- | --- | --- | --- | --- | --- | --- | --- | --- |
| COc1ccc(-c2cnccc2-c2cnc(NC(=O)C(C)C)s2)c(C(F)(F)F)c1 [CRT0105446, N-{5-[3-(4-Methoxy-2-trifluoromethyl-phenyl)-pyridin-4-yl]-hiazol-2-yl}-isobutyramide] | 89 | 3.9 | 62 | 92 | 100 | 40 | 81 | 100 | 70 | 100 | 100 | 92 | 96 | 90 | 100 | 100 | 72 | 100 | 95 | 96 | remaining binding at 10 µM [21]: 71%; remaining binding at 10 µM [22]: 87%; remaining binding at 10 µM [23]: 90% |
| Cc1ccc(-c2cnccc2-c2cnc(Nc3ccc(O)cc3)s2)c(Cl)c1 [CRT0105950, 4-{5-[3-(2-Chloro-4-methyl-phenyl)-pyridin-4-yl]-thiazol-2-ylamino}-phenol] | 67 | 2 | 9.4 | 42 | 100 | 5.6 | 79 | 81 | 59 | 3.6 | 20 | 42 | 14 | 14 | 43 | 0.7 | 40 | 81 | 80 | 82 | remaining binding at 10 µM [21]: 0.15%; remaining binding at 10 µM [22]: 44%; remaining binding at 10 µM [23]: 53% |
